Literature values as cited in patent publication US9421238B2 (priority 2013, dated 2016).
Where two headings read alike, the source gives them in different places.

Settings: rat, CO-60 in liver

Question: Which removal of toxin (intravenous administration) does the source give for `N[C@@H](CCC(=O)N[C@@H](CS)C(=O)NCC(=O)O)C(=O)O` [Plain glutathione, glutathione] here?
Answer: 64%

Question: What about the removal of toxin (oral administration) of the same molecule?
Answer: 0%

Question: And the toxin remained/remaining (oral administration)?
Answer: 100%
